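Five concentrations, 48 hours, 96-well plates. At the GI50, growth is halved. TGI is the concentration that stops growth completely.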
Tests used:
Test in all cases: NCI anticancer screen, dose series, 48 h
[1] = tested on: 786-0 renal
[2] = tested on: A498 renal
[3] = tested on: A549 NSCLC
[4] = tested on: ACHN renal
[5] = tested on: BT-549 breast
[6] = tested on: CAKI-1 renal
[7] = tested on: CCRF-CEM leukemia
[8] = tested on: COLO 205 colon
[9] = tested on: DU-145 prostate
[10] = tested on: EKVX NSCLC
[11] = tested on: HCC-2998 colon
[12] = tested on: HCT-116 colon
[13] = tested on: HCT-15 colon
[14] = tested on: HL-60(TB) leukemia
[15] = tested on: HOP-62 NSCLC
[16] = tested on: HOP-92 NSCLC
[17] = tested on: HS 578T breast
[18] = tested on: HT29 colon
[19] = tested on: IGROV1 ovarian
[20] = tested on: K-562 leukemia
[21] = tested on: KM12 colon
[22] = tested on: LOX IMVI melanoma
[23] = tested on: M14 melanoma
[24] = tested on: MALME-3M melanoma
[25] = tested on: MCF7 breast
[26] = tested on: MDA-MB-231 breast
[27] = tested on: MOLT-4 leukemia
[28] = tested on: NCI-H226 lung
[29] = tested on: NCI-H23 lung
[30] = tested on: NCI-H460 lung
[31] = tested on: NCI-H522 lung
[32] = tested on: NCI/ADR-RES ovarian
[33] = tested on: OVCAR-3 ovarian
[34] = tested on: OVCAR-4 ovarian
[35] = tested on: OVCAR-5 ovarian
[36] = tested on: OVCAR-8 ovarian
[37] = tested on: PC-3 prostate
[38] = tested on: RPMI-8226 leukemia
[39] = tested on: RXF 393 renal
[40] = tested on: SF-268 CNS
[41] = tested on: SF-295 CNS
[42] = tested on: SF-539 CNS
[43] = tested on: SK-MEL-2 melanoma
[44] = tested on: SK-MEL-28 melanoma
[45] = tested on: SK-MEL-5 melanoma
[46] = tested on: SK-OV-3 ovarian
[47] = tested on: SN12C renal
[48] = tested on: SNB-19 CNS
[49] = tested on: SNB-75 CNS
[50] = tested on: SR leukemia
[51] = tested on: SW-620 colon
[52] = tested on: T-47D breast
[53] = tested on: TK-10 renal
[54] = tested on: U251 CNS
[55] = tested on: UACC-257 melanoma
[56] = tested on: UACC-62 melanoma
[57] = tested on: UO-31 renal
[58] = tested on: MDA-MB-435

N#Cc1ccc(/C=N/NC(=O)c2[nH]c3ccc(Br)cc3c2-c2ccccc2)s1 gave a GI50 [1] of 0.395 µM, a TGI [1] of 13.2 µM and a GI50 [2] of 6.54 µM. For the same compound, the TGI [2] was 22.5 µM, the GI50 [3] was 0.379 µM and the TGI [3] was 13 µM. For the same compound, the GI50 [4] was 0.277 µM, the TGI [4] was 9.75 µM and the GI50 [5] was 0.25 µM. The TGI [5] was 1.33 µM, the GI50 [6] was 0.374 µM and the TGI [6] was 17.2 µM. The GI50 [7] was 0.173 µM, the TGI [7] was > 100 µM and the GI50 [8] was 1.69 µM. It also gave a TGI [8] of 4.86 µM, a GI50 [9] of 0.365 µM and a TGI [9] of 13.7 µM. It also gave a GI50 [10] of 1.21 µM, a TGI [10] of 26.3 µM and a GI50 [11] of 0.488 µM. It also gave a TGI [11] of 9.65 µM, a GI50 [12] of 0.118 µM and a TGI [12] of 11.1 µM. For the same compound, the GI50 [13] was 0.129 µM, the TGI [13] was 9.51 µM and the GI50 [14] was 0.0529 µM. The TGI [14] was 0.617 µM, the GI50 [15] was 0.519 µM and the TGI [15] was 11.6 µM. It also gave a GI50 [16] of 0.645 µM, a TGI [16] of 11.6 µM and a GI50 [17] of 0.616 µM. It also gave a TGI [17] of 24.7 µM, a GI50 [18] of 0.148 µM and a TGI [18] of 6.9 µM. For the same compound, the GI50 [19] was 0.221 µM, the TGI [19] was 9.1 µM and the GI50 [20] was 0.109 µM. For the same compound, the TGI [20] was > 100 µM, the GI50 [21] was 0.793 µM and the TGI [21] was 18.7 µM. The GI50 [22] was 0.309 µM, the TGI [22] was 1.43 µM and the GI50 [23] was 0.235 µM. For the same compound, the TGI [23] was 14.6 µM, the GI50 [24] was 0.564 µM and the TGI [24] was 24.9 µM. It also gave a GI50 [25] of 0.11 µM, a TGI [25] of 5.87 µM and a GI50 [26] of 0.545 µM. For the same compound, the TGI [26] was 4 µM, the GI50 [27] was 0.243 µM and the TGI [27] was 30.2 µM. For the same compound, the GI50 [28] was 0.579 µM, the TGI [28] was 6.27 µM and the GI50 [29] was 0.254 µM. It also gave a TGI [29] of 12 µM, a GI50 [30] of 0.34 µM and a TGI [30] of 2.25 µM. For the same compound, the GI50 [31] was 0.0785 µM, the TGI [31] was 0.262 µM and the GI50 [32] was 0.118 µM. It also gave a TGI [32] of 2.09 µM, a GI50 [33] of 0.367 µM and a TGI [33] of 15.7 µM. It also gave a GI50 [34] of 0.783 µM, a TGI [34] of 30.2 µM and a GI50 [35] of 0.439 µM. For the same compound, the TGI [35] was 24.6 µM, the GI50 [36] was 0.204 µM and the TGI [36] was 2.19 µM. For the same compound, the GI50 [37] was 0.304 µM, the TGI [37] was 12.3 µM and the GI50 [38] was 0.149 µM. The TGI [38] was > 20.9 µM, the GI50 [39] was 0.222 µM and the TGI [39] was 0.487 µM. The GI50 [40] was 1.58 µM, the TGI [40] was > 64.9 µM and the GI50 [41] was 0.0414 µM. It also gave a TGI [41] of 2.33 µM, a GI50 [42] of 0.0878 µM and a TGI [42] of 0.543 µM. For the same compound, the GI50 [43] was 0.451 µM, the TGI [43] was 16.2 µM and the GI50 [44] was 0.847 µM. For the same compound, the TGI [44] was > 37.4 µM, the GI50 [45] was 0.272 µM and the TGI [45] was 1.23 µM. The GI50 [46] was 0.993 µM, the TGI [46] was 15.3 µM and the GI50 [47] was 0.227 µM. The TGI [47] was 6.33 µM, the GI50 [48] was 0.439 µM and the TGI [48] was 16.7 µM. It also gave a GI50 [49] of 0.63 µM, a TGI [49] of 5.36 µM and a GI50 [50] of 0.0992 µM. The TGI [50] was > 38.8 µM, the GI50 [51] was 0.182 µM and the TGI [51] was 14.9 µM. It also gave a GI50 [52] of 2.46 µM, a TGI [52] of 27.3 µM and a GI50 [53] of 1.93 µM. The TGI [53] was 23.8 µM, the GI50 [54] was 0.312 µM and the TGI [54] was 5.79 µM. The GI50 [55] was 0.344 µM, the TGI [55] was 12.9 µM and the GI50 [56] was 0.139 µM. The TGI [56] was 6.99 µM, the GI50 [57] was 0.275 µM and the TGI [57] was 17.6 µM.

Compound O=C1C2=C(C(=O)c3c(O)cccc31)C(c1ccco1)c1sc(=O)[nH]c1S2 (stereo not given) has a GI50 [1] of 7.09 µM, a TGI [1] of 24.2 µM and a GI50 [2] of 3.48 µM. The TGI [2] was 9.69 µM, the GI50 [3] was 1.78 µM and the TGI [3] was 3.63 µM. For the same compound, the GI50 [4] was 4.08 µM, the TGI [4] was 16.1 µM and the GI50 [5] was 1.64 µM. The TGI [5] was 3.2 µM, the GI50 [6] was 3.29 µM and the TGI [6] was 13.9 µM. The GI50 [7] was 3.29 µM, the TGI [7] was > 100 µM and the GI50 [8] was 1.89 µM. It also gave a TGI [8] of 3.61 µM, a GI50 [9] of 1.55 µM and a TGI [9] of 3.01 µM. The GI50 [10] was 6.75 µM, the TGI [10] was 19.4 µM and the GI50 [11] was 2.5 µM. For the same compound, the TGI [11] was 5.51 µM, the GI50 [12] was 2.36 µM and the GI50 [13] was 1.75 µM. For the same compound, the TGI [13] was 3.88 µM, the GI50 [14] was 1.82 µM and the TGI [14] was 6.09 µM. It also gave a GI50 [15] of 2.04 µM, a TGI [15] of 3.74 µM and a GI50 [16] of 3.15 µM. It also gave a TGI [16] of 8.08 µM, a GI50 [17] of 2.2 µM and a TGI [17] of 6.56 µM. For the same compound, the GI50 [18] was 3.31 µM, the TGI [18] was 9.25 µM and the GI50 [19] was 2.51 µM. The TGI [19] was 6.14 µM, the GI50 [20] was 2.84 µM and the TGI [20] was > 100 µM. It also gave a GI50 [21] of 3.71 µM, a TGI [21] of 31.3 µM and a GI50 [22] of 2.21 µM. The TGI [22] was 7.55 µM, the GI50 [23] was 1.06 µM and the TGI [23] was 2.37 µM. The GI50 [24] was 0.755 µM, the TGI [24] was 2 µM and the GI50 [25] was 1.39 µM. It also gave a TGI [25] of 3.34 µM, a GI50 [26] of 2.73 µM and a TGI [26] of 9.08 µM. It also gave a GI50 [58] of 1.16 µM, a TGI [58] of 2.47 µM and a GI50 [27] of 2.71 µM. For the same compound, the TGI [27] was 9.88 µM, the GI50 [28] was 2.18 µM and the TGI [28] was 5.46 µM. The GI50 [30] was 1.54 µM, the TGI [30] was 3.48 µM and the GI50 [31] was 2.31 µM. The TGI [31] was 6.99 µM, the GI50 [32] was 3.02 µM and the TGI [32] was 12.3 µM. It also gave a GI50 [33] of 2.86 µM, a TGI [33] of 14 µM and a GI50 [34] of 1.79 µM. It also gave a TGI [34] of 3.95 µM, a GI50 [35] of 2.13 µM and a TGI [35] of 4.58 µM. The GI50 [36] was 2.46 µM, the TGI [36] was 8.97 µM and the GI50 [37] was 2.75 µM. The TGI [37] was 21.6 µM, the GI50 [38] was 2.62 µM and the TGI [38] was 9.83 µM. It also gave a GI50 [39] of 2.02 µM, a TGI [39] of 5.57 µM and a GI50 [40] of 3.48 µM. The TGI [40] was 19.2 µM, the GI50 [41] was 1.98 µM and the TGI [41] was 3.59 µM. It also gave a GI50 [42] of 1.93 µM, a TGI [42] of 3.69 µM and a GI50 [43] of 3.51 µM. The TGI [43] was 16.4 µM, the GI50 [44] was 1.87 µM and the TGI [44] was 3.72 µM. The GI50 [45] was 1.59 µM, the TGI [45] was 3 µM and the GI50 [46] was 15.5 µM. For the same compound, the TGI [46] was 29.6 µM, the GI50 [47] was 1.74 µM and the TGI [47] was 3.49 µM. It also gave a GI50 [48] of 2.6 µM, a TGI [48] of 7.33 µM and a GI50 [49] of 3.17 µM. For the same compound, the TGI [49] was 7.61 µM, the GI50 [50] was 3.05 µM and the TGI [50] was 69.5 µM. For the same compound, the GI50 [51] was 3.28 µM, the TGI [51] was 10.5 µM and the GI50 [52] was 2.87 µM. The TGI [52] was 13 µM, the GI50 [53] was 12.3 µM and the TGI [53] was 26.4 µM. It also gave a GI50 [54] of 3.07 µM, a TGI [54] of 10.1 µM and a GI50 [55] of 1.57 µM. It also gave a TGI [55] of 3.26 µM, a GI50 [57] of 2.56 µM and a TGI [57] of 13.5 µM.

— PubChem BioAssay (NCI)
